Laboratory results published in ChEMBL document CHEMBL3045409, “Synthesis and biological evaluation of ester derivatives of indomethacin as selective COX-2 inhibitors” (Med Chem Res, 2012).

Assays:
[1] = system: Rattus norvegicus; assay: Anti-inflammatory activity in Rattus norvegicus Sprague-Dawley (rat) assessed as inhibition of carrageenan-induced paw edema at 10 mg/kg, po after 1.5 to 3 hr relative to control; type: functional
[2] = system: Rattus norvegicus; assay: Ulcerogenic activity in Rattus norvegicus Sprague-Dawley (rat) assessed as ulcer index at 10 mg/kg, po after 8 hr; type: toxicity, organism-based; parameters: dose 10 mg/kg, route oral; details: in vivo
[3] = target: T1, Prostaglandin G/H synthase 1 (Ovis aries) (UniProt P05979); assay: Inhibition of Ovis aries (sheep) COX-1 assessed as appearance of oxidized N,N,N',N'-tetramethyl-p-phenylenediamine at 20 uM by colorimetric analysis
T1 sequence (whole entry): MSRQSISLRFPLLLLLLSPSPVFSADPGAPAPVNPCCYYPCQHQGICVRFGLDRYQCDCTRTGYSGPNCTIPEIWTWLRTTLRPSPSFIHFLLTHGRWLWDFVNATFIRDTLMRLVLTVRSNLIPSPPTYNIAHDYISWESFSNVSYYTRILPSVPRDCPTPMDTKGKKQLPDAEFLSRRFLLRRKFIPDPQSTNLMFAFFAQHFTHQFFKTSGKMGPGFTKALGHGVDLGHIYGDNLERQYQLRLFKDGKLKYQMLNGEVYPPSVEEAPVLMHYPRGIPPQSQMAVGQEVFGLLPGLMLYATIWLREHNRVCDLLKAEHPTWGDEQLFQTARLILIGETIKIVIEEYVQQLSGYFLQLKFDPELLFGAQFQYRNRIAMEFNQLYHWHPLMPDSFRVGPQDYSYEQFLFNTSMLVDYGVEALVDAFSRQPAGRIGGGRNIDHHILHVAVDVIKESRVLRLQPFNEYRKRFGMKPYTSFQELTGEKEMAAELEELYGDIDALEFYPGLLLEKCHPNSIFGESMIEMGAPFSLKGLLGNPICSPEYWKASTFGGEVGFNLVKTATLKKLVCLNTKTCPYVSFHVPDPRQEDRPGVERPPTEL

inhibition [3] [%]	SMILES	inhibition in vivo at 10 mg/kg [1] [%]	UI [2]
–	COc1ccc2c(c1)c(CC(=O)OCCc1c(C)cc(C)cc1C)c(C)n2C(=O)c1ccc(Cl)cc1	9.04	–
–	COc1ccc2c(c1)c(CC(=O)O)c(C)n2C(=O)c1ccc(Cl)cc1 [INDOMETHACIN]	13.9	50
–	COc1ccc2c(c1)c(CC(=O)Oc1c(Cl)c(Cl)c(Cl)c(Cl)c1Cl)c(C)n2C(=O)c1ccc(Cl)cc1	0	–
–	COc1ccc2c(c1)c(CC(=O)OCCN1CCNCC1)c(C)n2C(=O)c1ccc(Cl)cc1	0	–
–	COc1ccc2c(c1)c(CC(=O)OCCN1CCCCC1)c(C)n2C(=O)c1ccc(Cl)cc1	7.23	–
–	COc1ccc2c(c1)c(CC(=O)Oc1ccc([N+](=O)[O-])cc1)c(C)n2C(=O)c1ccc(Cl)cc1	4.81	–
–	COc1ccc2c(c1)c(CC(=O)OCc1ccoc1)c(C)n2C(=O)c1ccc(Cl)cc1	0	–
–	COc1ccc2c(c1)c(CC(=O)Oc1ccc(Cl)cc1)c(C)n2C(=O)c1ccc(Cl)cc1	0	–
–	CCCCOC(=O)c1ccc(OC(=O)Cc2c(C)n(C(=O)c3ccc(Cl)cc3)c3ccc(OC)cc23)cc1	7.83	–
–	CCc1ccc(OC(=O)Cc2c(C)n(C(=O)c3ccc(Cl)cc3)c3ccc(OC)cc23)cc1	2.41	–
12.9	CCOC(=O)c1ccc(OC(=O)Cc2c(C)n(C(=O)c3ccc(Cl)cc3)c3ccc(OC)cc23)cc1	19.9	0
–	COc1ccc2c(c1)c(CC(=O)OCc1ccccc1)c(C)n2C(=O)c1ccc(Cl)cc1	3.61	–
